Broadly, the Ki is the dissociation constant of the complex between target and ligand, obtained from inhibition or displacement. As a reminder, the Emax is the size of the effect at its maximum, as opposed to the concentration needed.

This is an account of results in US20260234147A1 (priority 2023, published 2026).

Structures are written as SMILES. Read-outs that look alike come from different tables or passages of the source.

Series [1] addresses T1, hMOR (Homo sapiens, UniProt P35372). Put plainly: Radioligand binding assay (Eurofins Cerep), [3H]DAMGO displacement.
Series [2] addresses hDOR (Homo sapiens, UniProt P41143). Put plainly: Radioligand binding assay (Eurofins Cerep), [3H]DADLE displacement.
In series [3] the target is T1, hMOR. Put plainly: Cyclic adenosine 3′,5′-monophosphate (cAMP) assay in hMOR-CHO cells. It counts as cell-based. The following applies: N=1, control agonist DAMGO.
Series [4] addresses T2, α2A adrenergic receptor (Homo sapiens, UniProt P08913).
T2 construct: Eurofins Cerep (contract screening)
T2 sequence (P08913 1-465): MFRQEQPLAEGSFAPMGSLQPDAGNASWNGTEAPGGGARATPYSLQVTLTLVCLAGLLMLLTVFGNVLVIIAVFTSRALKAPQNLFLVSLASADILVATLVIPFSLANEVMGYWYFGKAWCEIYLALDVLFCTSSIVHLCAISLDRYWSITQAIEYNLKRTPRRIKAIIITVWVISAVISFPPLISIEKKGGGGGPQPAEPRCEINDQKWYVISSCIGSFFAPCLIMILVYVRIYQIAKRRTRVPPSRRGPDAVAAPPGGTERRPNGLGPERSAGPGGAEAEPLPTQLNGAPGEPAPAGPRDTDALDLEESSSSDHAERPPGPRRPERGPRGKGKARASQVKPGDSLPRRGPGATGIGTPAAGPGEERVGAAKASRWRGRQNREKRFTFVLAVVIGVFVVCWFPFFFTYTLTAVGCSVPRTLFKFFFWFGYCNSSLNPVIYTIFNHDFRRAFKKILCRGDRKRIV
Put plainly: Radioligand binding assay (Eurofins Cerep), [3H]RX 821002 displacement.

The target of series [5] is hKOR (Homo sapiens, UniProt P41145). Put plainly: Radioligand binding assay (Eurofins Cerep), [3H]U69,593 displacement. The conditions noted are these: read-out: KOR Ki ± SEM.
The nature of series [6]: Metabolic stability in rat liver microsomes. In kind it is in vitro ADME. The following applies: for RLM stability: rat liver microsomes 1 mg/ml, substrate 1 μM, NADPH, 37° C. A digest of the protocol:
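Compounds at 1 μM were incubated in triplicate with rat liver microsomes (1 mg protein/ml) and 1 mM NADPH in 50 mM phosphate buffer pH 7.4 at 37 °C. Samples taken up to 60 min were analysed by UPLC-MS/MS. Intrinsic clearance came from substrate-depletion half-life and was scaled to hepatic CLint using 45 mg/g MPPGL and 40 g/kg liver.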

Series [7] deals with T3, α2C adrenergic receptor (Homo sapiens, UniProt P18825).
T3 construct: Eurofins Cerep (contract screening)
T3 sequence (P18825 1-462): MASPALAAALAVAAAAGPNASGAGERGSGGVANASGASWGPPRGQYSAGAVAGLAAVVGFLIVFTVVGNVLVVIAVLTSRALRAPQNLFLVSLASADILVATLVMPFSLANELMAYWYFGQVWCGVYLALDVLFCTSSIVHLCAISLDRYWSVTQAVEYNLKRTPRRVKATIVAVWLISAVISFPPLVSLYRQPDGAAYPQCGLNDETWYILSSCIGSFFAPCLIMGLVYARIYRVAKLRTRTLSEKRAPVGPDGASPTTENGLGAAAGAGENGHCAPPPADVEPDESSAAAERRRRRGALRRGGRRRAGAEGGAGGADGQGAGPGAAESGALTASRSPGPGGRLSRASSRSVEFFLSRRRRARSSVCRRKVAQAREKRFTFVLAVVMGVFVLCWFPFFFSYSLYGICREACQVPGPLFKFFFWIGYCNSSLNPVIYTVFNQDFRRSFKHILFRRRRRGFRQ
Put plainly: Radioligand binding assay (Eurofins Cerep), [3H]RX 821002 displacement. The conditions noted are these: Table A1, data summary #1; read-out: Alpha2C Ki ± SEM.

Series [8] addresses T1, hMOR. Put plainly: cell-based. Further details: expressed in transfected cells. The following applies: for Emax: CHO.
[9] abbreviates: Table A4, data summary #2, read-out: MOR Ki ± SEM.
The mark [10] stands for this setting: Table A4, data summary #2, read-out: DOR Ki ± SEM.
Where [11] appears, read: Table A4, data summary #2, read-out: Alpha2A Ki ± SEM.
[12] abbreviates: DOR Ki ± SEM (nM), Table A1, data summary #1.
[13] abbreviates: DOR Ki ± SEM (nM), Table A4, data summary #2.
The mark [14] stands for this setting: Alpha2A Ki ± SEM (nM), Table A4, data summary #2.

hDOR, sequence (P41143 whole entry): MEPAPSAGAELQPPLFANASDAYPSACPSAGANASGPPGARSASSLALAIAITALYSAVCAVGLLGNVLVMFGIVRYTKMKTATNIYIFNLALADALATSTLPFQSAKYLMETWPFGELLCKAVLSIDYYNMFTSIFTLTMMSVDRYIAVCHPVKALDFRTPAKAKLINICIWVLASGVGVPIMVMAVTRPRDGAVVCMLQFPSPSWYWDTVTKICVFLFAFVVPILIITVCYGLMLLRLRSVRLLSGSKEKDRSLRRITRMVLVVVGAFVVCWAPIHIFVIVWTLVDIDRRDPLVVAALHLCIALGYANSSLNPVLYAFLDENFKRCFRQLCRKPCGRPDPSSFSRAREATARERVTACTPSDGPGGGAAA
T1 sequence (P35372 whole entry): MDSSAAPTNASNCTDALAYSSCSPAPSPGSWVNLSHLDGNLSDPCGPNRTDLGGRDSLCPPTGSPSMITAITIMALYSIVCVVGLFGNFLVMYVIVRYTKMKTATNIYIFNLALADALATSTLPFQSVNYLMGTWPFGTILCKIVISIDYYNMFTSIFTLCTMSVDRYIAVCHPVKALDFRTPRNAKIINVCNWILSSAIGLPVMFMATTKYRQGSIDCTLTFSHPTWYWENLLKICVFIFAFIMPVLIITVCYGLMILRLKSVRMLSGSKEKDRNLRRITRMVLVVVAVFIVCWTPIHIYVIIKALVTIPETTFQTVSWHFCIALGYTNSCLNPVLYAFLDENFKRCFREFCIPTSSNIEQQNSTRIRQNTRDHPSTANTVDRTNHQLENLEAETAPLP
hKOR, sequence (P41145 whole entry): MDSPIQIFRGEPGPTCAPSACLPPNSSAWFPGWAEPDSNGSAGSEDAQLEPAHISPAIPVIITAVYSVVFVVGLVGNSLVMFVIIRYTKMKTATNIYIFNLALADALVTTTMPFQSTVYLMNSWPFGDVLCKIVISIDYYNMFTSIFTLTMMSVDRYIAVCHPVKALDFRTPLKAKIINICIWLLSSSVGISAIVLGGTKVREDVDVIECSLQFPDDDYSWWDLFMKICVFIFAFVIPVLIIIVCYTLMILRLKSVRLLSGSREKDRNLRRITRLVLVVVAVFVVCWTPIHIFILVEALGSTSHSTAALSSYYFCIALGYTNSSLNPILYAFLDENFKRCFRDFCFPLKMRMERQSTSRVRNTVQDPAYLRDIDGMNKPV

On to `CC[C@@H]1CN2CCc3c([nH]c4cccc(OC)c34)[C@@H]2C[C@@H]1/C(=C\OC)C(=O)N(C)C1CCCC1`, for which the inhibition constant (Ki) in series [1] (setting [9]) came out at 68 ± 7 nM; in series [1] (read-out: Ki at hMOR), 67.8 nM; in series [2] (Table A1, data summary #1, read-out: DOR Ki ± SEM), 9750 ± 452 nM; in series [2] (setting [10]), 6930 ± 1340 nM; in series [4] (setting [11]), 510 ± 82 nM; in series [5] (Table A1, data summary #1), 4.6 ± 0.132 µM. In addition, in series [5] (Table A4, data summary #2), the Ki came to 4.6 ± 0.132 µM. Moreover, the results for the “functional activity in cAMP assay” value in series [3] and in series [3] (listed as SUSM 522) were “antagonists” and “antagonist”, respectively. The “RLM stability” value in series [6] is under 5 min.
Regarding `CC[C@@H]1CN2CCc3c([nH]c4cccc(OC)c34)[C@@H]2C[C@@H]1/C(=C\OC)C(=O)N(C)C` [SUSM-501, (E)-2-((2S,3S,12bS)-3-ethyl-8-methoxy-1,2,3,4,6,7,12,12b-octahydroindolo[2,3-a]quinolizin-2-yl)-3-methoxy-N,N-dimethylacrylamide], the inhibition constant (Ki) in series [1] (Table A1, data summary #1, read-out: MOR Ki ± SEM) came out at 429 ± 75.7 nM; in series [1] (setting [9]) it was 429 ± 75.7 nM; in series [2] (setting [12]) it was 6490 ± 3030 nM; in series [2] (setting [13]), 6490 ± 3030 nM; in series [4] (Alpha2A Ki ± SEM (nM), Table A1, data summary #1) it was 1810 ± 319 nM; in series [4] (setting [14]) it was 1810 ± 319 nM. Also, the Ki is 3.07 ± 0.569 µM in series [5] (Table A1, data summary #1); 3.07 ± 0.569 µM in series [5] (Table A4, data summary #2); 420 ± 113 nM in series [7]. The “functional activity in cAMP assay” value in series [3] is listed as “partial agonist activity”; in series [3] (listed as SUSM 501), “partial agonist”. Also, in series [6] (in vitro intrinsic clearance in RLM scaled to whole organ (rat)), the “Whole liver clearance, CL int, H” value came to 128.8 mL/min/kg. In series [6], the “RLM stability” value was found to be 6 min. Also, the “functional character at MOR” value in series [8] is reported as “partial antagonist”. Further, the Emax in series [8] (read-out: MOR Emax ± SEM (% DAMGO), Table A1, data summary #1) was -4.05 ± 4.03%; in series [8] (read-out: Emax, functional activity at MOR) it was -4.05%.
For `CC[C@@H]1CN2CCc3c([nH]c4cccc(OC)c34)[C@@H]2C[C@@H]1/C(=C\OC)C(=O)N(C)C1CCCCC1` [SUSM-523, (E)-N-cyclohexyl-2-((2S,3S,12bS)-3-ethyl-8-methoxy-1,2,3,4,6,7,12,12b-octahydroindolo[2,3-a]quinolizin-2-yl)-3-methoxy-N-methylacrylamide], the Ki in series [1] (setting [9]) came out at 49 ± 14 nM; in series [1] (read-out: Ki at hMOR) it was 81.9 nM; in series [2] (setting [12]), 6490 ± 962 nM; in series [2] (setting [13]), 8290 ± 1020 nM; in series [4] (setting [14]), 187 ± 29 nM; in series [5] (Table A1, data summary #1), 2.64 ± 0.685 µM. For the same compound, in series [5] (Table A4, data summary #2), the Ki came to 1.95 ± 0.611 µM. Moreover, the “functional activity in cAMP assay” value was “antagonists” in series [3] and “antagonist” in series [3] (listed as SUSM 523). For the same compound, in series [6], the “RLM stability” value is on record as under 5 min.
With `CC[C@@H]1CN2CC[C@@]3(O)C(=Nc4cccc(OC)c43)[C@@H]2C[C@@H]1/C(=C\OC)C(=O)N(C)C` [SUSM-524, (E)-2-((2S,3S,7aS,12bS)-3-ethyl-7a-hydroxy-8-methoxy-1,2,3,4,6,7,7a,12b-octahydroindolo[2,3-a]quinolizin-2-yl)-3-methoxy-N,N-dimethylacrylamide], the “potency at MOR relative to SUSM-501” value in series [1] amounted to 4 fold. Moreover, the Ki in series [1] (setting [9]) was 90 ± 14 nM; in series [1] (read-out: Ki at hMOR), 110 nM; in series [2] (setting [10]), 802 ± 212 nM; in series [4] (setting [11]) it was over 10000 nM; in series [5] (Table A1, data summary #1), 9.15 ± 1.1 µM; in series [5] (Table A4, data summary #2) it was 9.15 ± 1.1 µM. Further, the entries for the “functional activity in cAMP assay” value in series [3] and in series [3] (listed as SUSM 524) were “agonist activity” and “agonist”, respectively. Besides, the “RLM stability” value in series [6] is reported as under 5 min.
